From PubChem BioAssay (NCI)
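GI50 = concentration required for 50% inhibition of growth. At the TGI there is no net growth.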

What was measured:
Assay in all cases: NCI tumour cell line growth inhibition, 384-well format
786-0 renal = tested on: 786-0 renal
A498 renal = tested on: A498 renal
A549 NSCLC = tested on: A549 NSCLC
ACHN renal = tested on: ACHN renal
BT-549 breast = tested on: BT-549 breast
CAKI-1 renal = tested on: CAKI-1 renal
CCRF-CEM leukemia = tested on: CCRF-CEM leukemia
COLO 205 colon = tested on: COLO 205 colon
DU-145 prostate = tested on: DU-145 prostate
EKVX NSCLC = tested on: EKVX NSCLC
HCC-2998 colon = tested on: HCC-2998 colon
HCT-116 colon = tested on: HCT-116 colon
HCT-15 colon = tested on: HCT-15 colon
HL-60(TB) leukemia = tested on: HL-60(TB) leukemia
HOP-62 NSCLC = tested on: HOP-62 NSCLC
HOP-92 NSCLC = tested on: HOP-92 NSCLC
HS 578T breast = tested on: HS 578T breast
HT29 colon = tested on: HT29 colon
IGROV1 ovarian = tested on: IGROV1 ovarian
K-562 leukemia = tested on: K-562 leukemia
KM12 colon = tested on: KM12 colon
LOX IMVI melanoma = tested on: LOX IMVI melanoma
M14 melanoma = tested on: M14 melanoma
MALME-3M melanoma = tested on: MALME-3M melanoma
MCF7 breast = tested on: MCF7 breast
MDA-MB-231 breast = tested on: MDA-MB-231 breast
MDA-MB-435 melanoma = tested on: MDA-MB-435 melanoma
MDA-MB-468 breast = tested on: MDA-MB-468 breast
MOLT-4 leukemia = tested on: MOLT-4 leukemia
NCI-H226 lung = tested on: NCI-H226 lung
NCI-H23 lung = tested on: NCI-H23 lung
NCI-H322M lung = tested on: NCI-H322M lung
NCI-H460 NSCLC = tested on: NCI-H460 NSCLC
NCI-H522 lung = tested on: NCI-H522 lung
NCI/ADR-RES ovarian = tested on: NCI/ADR-RES ovarian
OVCAR-3 ovarian = tested on: OVCAR-3 ovarian
OVCAR-4 ovarian = tested on: OVCAR-4 ovarian
OVCAR-8 ovarian = tested on: OVCAR-8 ovarian
PC-3 prostate = tested on: PC-3 prostate
RPMI-8226 leukemia = tested on: RPMI-8226 leukemia
RXF 393 renal = tested on: RXF 393 renal
SF-268 CNS = tested on: SF-268 CNS
SF-295 CNS = tested on: SF-295 CNS
SF-539 CNS = tested on: SF-539 CNS
SK-MEL-28 melanoma = tested on: SK-MEL-28 melanoma
SK-MEL-5 melanoma = tested on: SK-MEL-5 melanoma
SK-OV-3 ovarian = tested on: SK-OV-3 ovarian
SN12C renal = tested on: SN12C renal
SNB-19 CNS = tested on: SNB-19 CNS
SNB-75 CNS = tested on: SNB-75 CNS
SR leukemia = tested on: SR leukemia
SW-620 colon = tested on: SW-620 colon
T-47D breast = tested on: T-47D breast
TK-10 renal = tested on: TK-10 renal
U251 glioblastoma = tested on: U251 glioblastoma
UACC-257 melanoma = tested on: UACC-257 melanoma
UACC-62 melanoma = tested on: UACC-62 melanoma
UO-31 renal = tested on: UO-31 renal

Q: Which results are given for CC(=O)N1c2ccc(-c3ccc(C(=O)O)cc3)cc2[C@H](Nc2ccc(Cl)cc2)C[C@@H]1C?
A: GI50 (786-0 renal): 74.9 nM; TGI (786-0 renal): 24200 nM; GI50 (A498 renal): 239 nM; TGI (A498 renal): 13500 nM; GI50 (A549 NSCLC): 456 nM; TGI (A549 NSCLC): 18600 nM; GI50 (ACHN renal): 558 nM; TGI (ACHN renal): 19700 nM; GI50 (BT-549 breast): 43 nM; TGI (BT-549 breast): 11400 nM; GI50 (CAKI-1 renal): 31.3 nM; TGI (CAKI-1 renal): 2560 nM; GI50 (CCRF-CEM leukemia): 60.5 nM; TGI (CCRF-CEM leukemia): 8770 nM; GI50 (COLO 205 colon): 146 nM; TGI (COLO 205 colon): 10900 nM; GI50 (DU-145 prostate): 638 nM; TGI (DU-145 prostate): > 100000 nM; GI50 (EKVX NSCLC): 1390 nM; TGI (EKVX NSCLC): 46400 nM; GI50 (HCC-2998 colon): 62.8 nM; TGI (HCC-2998 colon): 676 nM; GI50 (HCT-116 colon): 180 nM; TGI (HCT-116 colon): 12800 nM; GI50 (HCT-15 colon): 53.5 nM; TGI (HCT-15 colon): 10300 nM; GI50 (HL-60(TB) leukemia): < 10 nM; TGI (HL-60(TB) leukemia): 25.9 nM; GI50 (HOP-62 NSCLC): 47.8 nM; TGI (HOP-62 NSCLC): 7200 nM; GI50 (HOP-92 NSCLC): 49.7 nM; TGI (HOP-92 NSCLC): 16400 nM; GI50 (HS 578T breast): 20.7 nM; TGI (HS 578T breast): 185 nM; GI50 (HT29 colon): 73.3 nM; TGI (HT29 colon): 15700 nM; GI50 (IGROV1 ovarian): 75.6 nM; TGI (IGROV1 ovarian): 18800 nM; GI50 (K-562 leukemia): 84.2 nM; TGI (K-562 leukemia): 16800 nM; GI50 (KM12 colon): 193 nM; TGI (KM12 colon): 15500 nM; GI50 (LOX IMVI melanoma): 48.1 nM; TGI (LOX IMVI melanoma): 209 nM; GI50 (M14 melanoma): 144 nM; TGI (M14 melanoma): 15500 nM; GI50 (MALME-3M melanoma): 30.9 nM; TGI (MALME-3M melanoma): 1600 nM; GI50 (MCF7 breast): 19.5 nM; TGI (MCF7 breast): 10200 nM; GI50 (MDA-MB-231 breast): 61.8 nM; TGI (MDA-MB-231 breast): 75200 nM; GI50 (MDA-MB-435 melanoma): 669 nM; TGI (MDA-MB-435 melanoma): 42600 nM; GI50 (MDA-MB-468 breast): 171 nM; TGI (MDA-MB-468 breast): 10500 nM; GI50 (MOLT-4 leukemia): 54.1 nM; TGI (MOLT-4 leukemia): 2060 nM; GI50 (NCI-H226 lung): 57.4 nM; TGI (NCI-H226 lung): 2510 nM; GI50 (NCI-H23 lung): 137 nM; TGI (NCI-H23 lung): 11400 nM; GI50 (NCI-H322M lung): 201 nM; TGI (NCI-H322M lung): 13300 nM; GI50 (NCI-H460 NSCLC): 467 nM; TGI (NCI-H460 NSCLC): 15400 nM; GI50 (NCI-H522 lung): 24.3 nM; TGI (NCI-H522 lung): 1310 nM; GI50 (NCI/ADR-RES ovarian): 129 nM; TGI (NCI/ADR-RES ovarian): 3300 nM; GI50 (OVCAR-3 ovarian): 57 nM; TGI (OVCAR-3 ovarian): 11300 nM; GI50 (OVCAR-4 ovarian): 104 nM; TGI (OVCAR-4 ovarian): 659 nM; GI50 (OVCAR-8 ovarian): 77 nM; TGI (OVCAR-8 ovarian): 3100 nM; GI50 (PC-3 prostate): 369 nM; TGI (PC-3 prostate): 20600 nM; GI50 (RPMI-8226 leukemia): < 10 nM; TGI (RPMI-8226 leukemia): 108 nM; GI50 (RXF 393 renal): 702 nM; TGI (RXF 393 renal): 20800 nM; GI50 (SF-268 CNS): 386 nM; TGI (SF-268 CNS): 19500 nM; GI50 (SF-295 CNS): 975 nM; TGI (SF-295 CNS): 17300 nM; GI50 (SF-539 CNS): 314 nM; TGI (SF-539 CNS): 11200 nM; GI50 (SK-MEL-28 melanoma): 89.5 nM; TGI (SK-MEL-28 melanoma): 15000 nM; GI50 (SK-MEL-5 melanoma): 208 nM; TGI (SK-MEL-5 melanoma): 13100 nM; GI50 (SK-OV-3 ovarian): 101 nM; TGI (SK-OV-3 ovarian): 14100 nM; GI50 (SN12C renal): 108 nM; TGI (SN12C renal): 20900 nM; GI50 (SNB-19 CNS): 166 nM; TGI (SNB-19 CNS): 27000 nM; GI50 (SNB-75 CNS): 213 nM; TGI (SNB-75 CNS): 49300 nM; GI50 (SR leukemia): < 10 nM; TGI (SR leukemia): 50.2 nM; GI50 (SW-620 colon): 2990 nM; TGI (SW-620 colon): 22000 nM; GI50 (T-47D breast): 240 nM; TGI (T-47D breast): 12400 nM; GI50 (TK-10 renal): 48.6 nM; TGI (TK-10 renal): 2650 nM; GI50 (U251 glioblastoma): 488 nM; TGI (U251 glioblastoma): 21700 nM; GI50 (UACC-257 melanoma): 192 nM; TGI (UACC-257 melanoma): 53600 nM; GI50 (UACC-62 melanoma): 22.2 nM; TGI (UACC-62 melanoma): 2740 nM; GI50 (UO-31 renal): 200 nM; TGI (UO-31 renal): 13000 nM
